Assay results taken from patent US11235074B2, “Contrast agents for magnetic resonance imaging” (Duke University, priority 2015, dated 2022).
Where two headings read alike, the source gives them in different places.

How the values were obtained:
[1] = cited from earlier work
[2] = cited from earlier work; remark: listed apart in the source
[3] = system: brain of normal C57 black mouse; assay: In vivo ascorbate T2 contrast changes in normal mouse brain; conditions: 2 g/kg i.v., normal C57 mice, FIG. 9B
Description: Color-lute maps of signal intensity are not subtracted from the pre-dose scan and therefore show the expected decreases in T2 signal over time, maximized between 30-60 min in normal C57 mice.

[4] = In vitro phantom quantitative T2 mapping (spin-spin relaxation MRI contrast) at 7 T
Description: Data are provided from quantitative T2 mapping at 7 T using a RARE FSE protocol with at least 6 different echo times, at solute concentrations of 10 and 20 mM.

[5] = cited from earlier work; remark: listed apart in the source
[6] = system: whole brains of guinea pigs; assay: T2 contrast changes in guinea pig brain after i.v. ascorbate formulations, 7 T; assay type: in vivo; conditions: 2 g/kg i.v. over 60 minutes, nearly every time point
Description: MRI was performed for 90 minutes.

Row | Molecule | pKA ([1]; disproportionation reaction at equilibrium) | pKA ([1]; hydroxyl group at the 4 position) | fraction present as the mono anion ([1]; physiological pH (7.4)) [%] | plasma concentration achievable ([2]; administered intravenously) [µM] | plasma concentration ([2]; oral ascorbate, doses more than 100 times the recommended daily allowance) [µM] | excretion half-life ([2]; urinary excretion of concentrations over the renal re-absorption threshold) | time of maximal decrease in T2 signal [3] [min] | change in T2 relaxation ([4]; 10 mM ascorbate with physiological glucose (5 mM) or HCO3- (25 mM), FIG. 5) [%] | pH at which T2 effect is maximized ([4]; FIG. 3C) | lowest concentration with statistically significant negative T2 contrast (signal loss) ([4]; vs phosphate-buffered saline control, conventional FSE acquisition, FIG. 3A) [mM] | H2O2 concentration in brain and tumors in vivo following parenteral ascorbate ([5]; brain and tumors) [µM] | intracellular concentration ([5]; tumors, brain cells and some other tissues) [mM] | FSE T2 weighted signal intensity changes, comparison between formulations [6] | T2 contrast effect (T2 relaxation in ms) relative to meglumine or ascorbate alone ([4]; water, neutral pH, FIG. 3D)
1 | O=C1O[C@H]([C@@H](O)CO)C(O)=C1O [ascorbate, L-ascorbic acid] | 7.0 | 6.75 | 99 | ≥ 10000 | ≤ 200 | about 30 minutes | 30 to 60 | 50 | 7.0-7.4 | 1 to 5 | 100 to 200 | 10 to 30 | – | –
2 | meglumine ascorbate | – | – | – | – | – | – | – | – | – | – | – | – | greater than those observed with sodium ascorbate (1) | approximately 4 times
